Tests used:
Format in all cases: cell-based
P.aeruginosa IHMA 517175 = assay: MIC by broth microdilution, P. aeruginosa IHMA 517175; conditions: cation-adjusted Mueller-Hinton broth, CLSI guidelines, clinical strain with reduced susceptibility to PMB
P.aeruginosa ATCC 27853 = assay: MIC by broth microdilution, P. aeruginosa ATCC 27853; conditions: cation-adjusted Mueller-Hinton broth, CLSI guidelines
E.coli IHMA 940398 = assay: MIC by broth microdilution, E. coli IHMA 940398; conditions: cation-adjusted Mueller-Hinton broth, CLSI guidelines, clinical strain with reduced susceptibility to PMB
A.baumannii IHMA 863866 = assay: MIC by broth microdilution, A. baumannii IHMA 863866; conditions: cation-adjusted Mueller-Hinton broth, CLSI guidelines, clinical strain with reduced susceptibility to PMB
K.pneumoniae ATCC 4352 = assay: MIC by broth microdilution, K. pneumoniae ATCC 4352; conditions: cation-adjusted Mueller-Hinton broth, CLSI guidelines
E.coli ATCC 25922 = assay: MIC by broth microdilution, E. coli ATCC 25922; conditions: cation-adjusted Mueller-Hinton broth, CLSI guidelines
K.pneumoniae IHMA 652780 = assay: MIC by broth microdilution, K. pneumoniae IHMA 652780; conditions: cation-adjusted Mueller-Hinton broth, CLSI guidelines, clinical strain with reduced susceptibility to PMB
A.baumannii NCTC 13424 = assay: MIC by broth microdilution, A. baumannii NCTC 13424; conditions: cation-adjusted Mueller-Hinton broth, CLSI guidelines

Polymyxin B [Compound 1]
MIC P.aeruginosa IHMA 517175 (P.aeruginosa IHMA 517175): 8.0 µg/mL
MIC P.aeruginosa ATCC 27853 (P.aeruginosa ATCC 27853): 0.5 µg/mL
MIC E.coli IHMA 940398 (E.coli IHMA 940398): 16 µg/mL
MIC A.baumannii IHMA 863866 (A.baumannii IHMA 863866): 32 µg/mL
MIC K.pneumoniae ATCC 4352 (K.pneumoniae ATCC 4352): 0.125 µg/mL
MIC E.coli ATCC 25922 (E.coli ATCC 25922): 0.25 µg/mL
MIC K.pneumoniae IHMA 652780 (K.pneumoniae IHMA 652780): 4.0 µg/mL
MIC A.baumannii NCTC 13424 (A.baumannii NCTC 13424): 0.25 µg/mL

From publication PMC7215238 (Bioorganic & medicinal chemistry letters, 2020)
